Five molecules from US20240201172A1, “USE OF ODORANT RECEPTOR FOR SUPPRESSING LACTATE-INDUCED M2-TYPE DIFFERENTIATION OF TUMOR-ASSOCIATED MACROPHAGES AND TUMOR GROWTH” (KYUNGPOOK NATIONAL UNIVERSITY INDUSTRY-ACADEMIC COOPERATION …, priority 2021, published 2024) can be followed below.

Format in all cases: cell-based
In one assay the test system is BMDMs. The assay is described as follows: M1/M2 polarization of mouse BMDMs (flow cytometry, qRT-PCR, cell shape). To be noted: for Olfr78 expression: BMDMs differentiated into M2 or M1 macrophages, FIG. 1B. As for the experimental part: BMDMs were isolated from tibias and femurs of C57BL6 or Balb/c mice and cultured in DMEM supplemented with 10 ng/mL macrophage colony-stimulating factor (Gibco, Carlsbad, CA) and 10% FBS for 7 d. The culture medium was changed every other day. For M1 polarization, BMDMs were cultured with 20 ng/mL recombinant mouse IFN-γ (R&D Systems) plus 100 ng/mL LPS for 24 to 48 h. For M2 polarization, BMDMs were cultured with 20 ng/mL recombinant mouse IL-4 for 24 to 48 h. For lactate-mediated M2 polarization, BMDMs were treated with 10 mM lactate (Sigma-Aldrich, St. Louis, MO) at 37° C. in a humidified atmosphere containing 5% CO2 for 24 to 48 h.
(§1) Anti-CD11b, anti-CD3, anti-CD4, anti-CD8, anti-CD86, anti-F4/80, anti-CD206, anti-CD163, and anti-Gr1 antibodies were purchased from BioLegend (San Diego, CA). An anti-Olfr78 antibody was purchased from LSBio (Seattle, WA). Anti-CD206 and anti-CD86 antibody was purchased from Santa Cruz Biotechnology (Dallas, TX). Cells were fixed with 4% paraformaldehyde and then reacted with an untagged primary antibody or a dye-tagged antibody at 4° C. for 30 min in the dark. Cells treated with an untagged primary antibody (anti-Olfr78, anti-CD206, and anti-CD86) were washed and reacted with a dye-tagged secondary antibody. At least 10,000 or more events were analyzed using a flow cytometer (BD Bioscience, San Jose, CA). Data were evaluated using CellQuest Pro software (BD Biosciences). To prepare cell suspensions from tumor tissues, freshly excised tumors were fragmented into several pieces, minced into 2-3 mm^3 pieces, and reacted with collagenase D (Roche, Basel, Switzerland) and DNase (Sigma-Aldrich) at 37° C. for 40 min. The tissue samples were filtered through a 100 μm cell strainer (Falcon, Corning, NY) to collect digested cells. Collected cells were resuspended in phosphate-buffered saline containing FBS and subjected to flow cytometry.
(§2) Cells were lysed using QIAzol lysis reagent (Qiagen, Hilden, Germany). RNA was isolated from cell lysates using an miRNeasy Mini Kit (Qiagen) and subjected to qRT-PCR. Primers targeting Arg1, IL-10, IL-4, TGF-0, IL-12p40, IFN-γ, and R-actin were obtained from Bioneer Inc. (Daejeon, Korea). cDNA was synthesized using a PrimeScript 1st cDNA Synthesis Kit (Takara, Shiga, Japan). qPCR using SYBR Green (Qiagen) was performed on a real time cycler (Bio-Rad, Hercules, CA). R-Actin was used as an endogenous control. Data used to determine relative expression were analyzed according to the Livak method.
To examine the involvement of Olfr78 in lactate-induced M2 polarization of macrophages, the present inventors conducted investigation on whether Olfr78 was expressed in BMDMs isolated from Olfr78^+/+ (WT) and Olfr78^−/− mice. […] Next, the present inventors differentiated BMDMs into M1 and M2 macrophages to investigate whether the expression level of Olfr78 was regulated according to macrophage polarization. Lactate, TCM, and IL-4 were used to stimulate M2 polarization, while lipopolysaccharide (LPS) plus interferon (IFN)-γ (L+I) was used to stimulate M1 polarization. […] To investigate the effect of Olfr78 on macrophage polarization, the present inventors measured the protein levels of M2 macrophage markers such as CD206 (FIG. 1C) and the mRNA levels of IL-4, IL-10, and TGF-β(FIGS. 1E-G), as well as M1 macrophage markers such as CD86 (FIG. 1D) and the mRNA levels of IL-12 and IFN-γ (FIGS. 1H and 1I) when WT and Olfr78^−/− BMDMs were differentiated into M1 and M2 macrophages. […] Next, the present inventors restored Olfr78 expression in Olfr78^−/− BMDMs by transfecting them with a Flag-tagged Olfr78 expression vector.
A general note: In flow cytometry, cells or beads pass a laser one at a time.

A further assay relates to lactate dehydrogenase. As to the kind of experiment: Lactate concentration in TCM of mouse tumor cell lines pretreated with oxamic acid. To be noted: pretreatment of mouse tumor cell lines, FIG. 4A. The method, then:
The concentrations of lactate and acetate in TCM of cells cultured at 80% confluency were measured using lactate and acetate colorimetric assay kits (BioVision, Milpitas, CA). Briefly, 50 μL of TCM was mixed with lactate or acetate enzyme mix and the probe according to the manual and reacted for 30 min at room temperature. The concentrations of cytokines in the conditioned medium of macrophages were measured using cytokine ELISA kits (R&D Systems). Briefly, 100 μL of conditioned medium was added to plates precoated with antibodies against IL-4, IL-10, and TGF-β. Samples were reacted with corresponding antibodies conjugated to biotin and then with horseradish peroxidase-labeled streptavidin. Absorbance at 570 nm was measured using a microplate reader. The concentrations of lactate, acetate, and cytokines were calculated from the standard curves.
To determine, though lactate is known to be important in M2 macrophage polarization, whether lactate is the main factor in TCM responsible for Olfr78-mediated M2 macrophage polarization, the prevent inventors treated WT BMDMs with TCM of mouse tumor cell lines pretreated with oxamic acid (OA), an inhibitor of lactate dehydrogenase that prevents lactate production. […] Up-regulation of M2 markers was attenuated (P<0.05) in WT BMDMs treated with lactate-depleted TCM (TCM+OA). […]

Assay [1] deals with THP-1 human immortalized monocytes. The assay is described as follows: M1/M2 polarization of PMA-treated THP-1 human monocytes. To be noted: for M1 markers such as iNOS, CD86, TNF-α, and IL-12B / M2 markers such as Arg-1, CD163, CD206, and IL-10: OR51E2-depleted THP1 cells vs untreated; for M1 markers such as iNOS, CD86, TNF-α, and IL-12B: FIGS. 3D, 3E, 3I-K; for M2 markers such as Arg-1, CD163, CD206, and IL-10: FIGS. 3D-H; for protein and mRNA levels of OR51E2: FIGS. 2B, 2C; for levels of M2 macrophage markers such as Arg1, CD206, CD163, and IL-10: FIGS. 2D-H. The method, then:
as §1, §2
For coimmunoprecipitation assays, cells were lysed with M-PER Mammalian Protein Extraction Reagent (ThermoFisher Scientific, Waltham, MA). Cell lysates were reacted with 2 μg of an antibody against Olfr78 or Gpr132 at 4° C. overnight and then with 100 μl of protein A-agarose beads (ThermoFisher Scientific) at 4° C. for 4 h with agitation. The beads were boiled, and the eluates were subjected to Western blotting with an antibody against Olfr78 or Gpr132. 40 μg of protein was electrophoresed on a 10% SDS-PAGE gel and transferred to a membrane (MilliPore, Burlington, MA). The membrane was reacted with antibodies against iNOS (Abcam, Cambridge, UK), Arg1 (Abcam), and R-actin (Santa Cruz Biotechnology) at 4° C. overnight followed by secondary antibody at room temperature for 2 h, and then exposed to a chemiluminescence substrate (ThermoFisher Scientific). Signals were visualized using an LAS1000 enhanced chemiluminescence detection system (Fuji Film, Minato, Tokyo).
To examine the effect of ORs on M2 polarization of human macrophages, THP-1 human immortalized monocytes were treated with phorbol myristate acetate (PMA) and then with L+I, IL-4, TCM, or lactate.

For a further assay, the target named is T1, Olfr78/Gpr132 (Mus musculus, UniProt Q8VBV9+Q9Z282).
T1 construct: expressed in transfected cells; host or cells: Hana3A cells
T1 sequence (Q8VBV9 1-320): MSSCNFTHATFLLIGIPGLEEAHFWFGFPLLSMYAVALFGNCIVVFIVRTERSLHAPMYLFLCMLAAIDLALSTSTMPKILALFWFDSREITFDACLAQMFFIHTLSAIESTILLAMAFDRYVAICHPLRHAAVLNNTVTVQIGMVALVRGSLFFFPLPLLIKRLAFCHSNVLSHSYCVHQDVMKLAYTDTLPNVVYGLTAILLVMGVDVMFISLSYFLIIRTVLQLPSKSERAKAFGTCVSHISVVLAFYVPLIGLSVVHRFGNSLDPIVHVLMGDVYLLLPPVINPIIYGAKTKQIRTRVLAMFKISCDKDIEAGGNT
T1 sequence (Q9Z282 1-382): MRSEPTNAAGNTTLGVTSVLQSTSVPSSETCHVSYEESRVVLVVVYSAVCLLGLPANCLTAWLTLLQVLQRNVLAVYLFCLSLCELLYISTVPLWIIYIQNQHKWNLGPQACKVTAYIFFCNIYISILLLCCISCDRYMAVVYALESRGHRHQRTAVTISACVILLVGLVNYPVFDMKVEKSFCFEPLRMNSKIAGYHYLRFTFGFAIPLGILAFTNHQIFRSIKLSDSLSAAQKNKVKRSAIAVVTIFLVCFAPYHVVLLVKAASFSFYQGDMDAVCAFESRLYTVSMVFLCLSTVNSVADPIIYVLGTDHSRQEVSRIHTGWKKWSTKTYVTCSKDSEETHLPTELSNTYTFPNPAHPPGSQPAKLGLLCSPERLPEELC
The assay is described as follows: Luciferase assay in transfected Hana3A cells. To be noted: Hana3A cells cotransfected with Olfr78 and Gpr132 vs Olfr78 or Gpr132 alone, FIG. 6D. As for the experimental part:
Luciferase assays were performed using the Dual-Glo™ Luciferase Assay System (Promega, Madison, WI). Briefly, Mock-, Olfr78−, Gpr132−, or Olfr78/Gpr132 transiently transfected Hana3A cells were stimulated with various concentrations of sodium lactate diluted in CD293 medium at 37° C. for 4 h. The activity of firefly luciferase was normalized against that of Renilla luciferase. Luminescence was measured on a SpectraMax L microplate reader (Molecular Devices, San Jose, CA).

Turning to `CC(=O)O` [acetate], the M2 polarization entry in the assay with BMDMs (Olfr78−/− BMDMs, FIGS. 4H-J) is reported as “did not induce M2 polarization”. For the same molecule, in the assay on BMDMs (WT BMDMs, FIGS. 4H-J), the “mRNA levels of M2 markers such as IL-4, IL-10, and TGF-β” value is on record as “significantly (P<0.001) increased”.

`NC(=O)C(=O)O` [OA, oxamic acid]: in the assay with lactate dehydrogenase, the “lactate in TCM” value is recorded as “almost completely depleted”.

As to lactate, in the assay with BMDMs, the Olfr78 expression result is “significantly increased”. The “mRNA levels of IL-4, IL-10, and TGF-β (lactate-induced)” value in the assay with BMDMs (Gpr132-depleted Olfr78−/− BMDMs, FIGS. 6G-I) was “further reduced”. Moreover, the “Lactate-induced up-regulation of mRNA levels of M2 cytokines such as IL-4, IL-10, TGF-β, and Arg1” value in the assay with BMDMs (Gpr132-depleted WT BMDMs, FIGS. 6G-J) was “significantly (P<0.01) reduced”. Also, the “M2-specific and M1-specific markers” value in the assay with BMDMs (Olfr78−/− BMDMs vs untreated, FIGS. 1C-I) is recorded as “did not exhibit up-regulation of M2-specific markers or down-regulation of M1-specific markers”. Further, in the assay with BMDMs (WT BMDMs vs untreated, FIG. 1C), the “protein level of CD206 (M2 marker)” value was “dramatically (P<0.001) higher”. For the same molecule, the “protein level of CD86 (M1 marker)” value in the assay with BMDMs (WT BMDMs vs untreated, FIG. 1D) is reported as “significantly lower”. Besides, the “mRNA levels of IL-4, IL-10, and TGF-β (M2 markers)” value with BMDMs (WT BMDMs vs untreated, FIGS. 1E-G) was “dramatically (P<0.001) higher”. Besides, the “mRNA levels of IL-12 and IFN-γ (M1 markers)” value with BMDMs (WT BMDMs vs untreated, FIGS. 1H and 1I) was “significantly lower”. The “M2 polarization markers, such as CD206, IL-4, IL-10, and TGF-0” value with BMDMs (WT BMDMs vs untreated, FIGS. 4B-E) is recorded as “significant up-regulation”. The “percentage of cells with an elongated shape” value with BMDMs (WT BMDMs vs untreated, FIGS. 4F, 4G) is recorded as “increase”. In addition, the “M2 polarization of THP-1 human monocytes” value in assay [1] (FIG. 2 legend) is listed as “induces M2 polarization”. Also, in assay [1], the “M1 markers such as iNOS, CD86, TNF-α, and IL-12B” value is “did not up-regulate M2 markers such as Arg-1, CD163, CD206, and IL-10 (FIGS. 3D-H) or down-regulate M1 markers”; the “M2 markers such as Arg-1, CD163, CD206, and IL-10” value is “did not up-regulate”. In addition, the iNOS levels result in assay [1] (THP-1 cells vs untreated, FIGS. 2D, 2E) is recorded as “decreased”. In assay [1] (THP-1 cells), the “protein and mRNA levels of OR51E2” value was “significantly (P<0.01) increased”; the “levels of M2 macrophage markers such as Arg1, CD206, CD163, and IL-10” value is “increased”. Besides, the “levels of M1 macrophage markers such as CD86, TNF-α, and IL-12B” value in assay [1] (THP-1 cells, FIGS. 2I-K) is “did not affect”.

`CC(O)C(=O)[O-].[Na+]` (stereo not drawn) [sodium lactate]: the Relative luciferase activity result on Olfr78/Gpr132 was “significantly higher”.

B1: IL-4: recombinant interleukin-4 used to stimulate M2 polarization (protein, UniProt P05112 25-153, looked up)
Interleukin-4: HKCDITLQEIIKTLNSLTEQKTLCTELTVTDIFAASKNTTEKETFCRAATVLRQFYSHHEKDTRCLGATAQQFHRHKQLIRFLKRLDRNLWGLAGLNSCPVKEANQSTLENFLERLKTIMREKYSKCSS
For the molecule B1, the Olfr78 expression result with BMDMs was “significantly increased”. Moreover, in the assay with BMDMs (Olfr78−/− BMDMs, FIG. 1C), the CD206 entry is “still up-regulated”. For the same molecule, the CD86 entry with BMDMs (Olfr78−/− BMDMs, FIG. 1D) is recorded as “down-regulated”. For the same molecule, the “protein level of CD206 (M2 marker)” value in the assay with BMDMs (WT BMDMs vs untreated, FIG. 1C) is “up-regulated”. The “protein level of CD86 (M1 marker)” value in the assay on BMDMs (WT BMDMs vs untreated, FIG. 1D) is “down-regulated”. Moreover, in assay [1], the “M1 markers such as iNOS, CD86, TNF-α, and IL-12B” value is recorded as “down-regulated”; the “M2 markers such as Arg-1, CD163, CD206, and IL-10” value is “still up-regulated”. In addition, in assay [1] (THP-1 cells), the “protein and mRNA levels of OR51E2” value is on record as “significantly (P<0.01) increased”; the “levels of M2 macrophage markers such as Arg1, CD206, CD163, and IL-10” value is “increased”.
